{"source": "patent US20110123530A1", "about": "“COMPOSITIONS AND METHODS FOR TREATING AND DIAGNOSING ASTHMA” (priority 2008, published 2011)", "assay_type_in_all_cases": "in vivo, human", "conditions_in_all_cases": "asthmatics on inhaled corticosteroids (N = 51) vs No ICS (N = 49)", "key": {"serum CEA": {"test_system": "serum CEA", "assay": "Serum CEA ELISA", "method": "(§1) Serum IgE was measured by UCSF clinical laboratories or by ELISA using a human serum IgE ELISA kit according to manufacturer's instructions (Bethyl Laboratories). Serum CEA was measured using a human serum CEA ELISA kit according to manufacturer's instructions (Alpco Diagnostics). We developed an electrochemiluminescent assay (ECLA) to measure serum periostin using anti-periostin antibodies (R&D systems). Briefly, monoclonal anti-periostin was coated onto plates at 1.5 micrograms/ml in sodium carbonate buffer, pH 9.6 overnight at 4° C. Plates were blocked in assay buffer (1×PBS pH 7.4, 0.35 M NaCl, 0.5% BSA, 0.05% Tween 20, 0.25% CHAPS, 5 mM EDTA, 15PPM Proclin)+3% BSA for 2 hours at room temperature, then washed 4× with TBST (Tris-buffered saline+0.1% Tween-20). Serum was diluted 1:5 in assay buffer and incubated with agitation at room temperature for 2 h, then washed 4× with TBST. Recombinant periostin (R&D Systems) was used to establish a standard range. […] Reading buffer (Meso Scale Devices) was added and electrochemiluminescence was read (Meso Scale Devices). […] In addition, we measured IgE and YKL-40, a serum marker previously described to be elevated in some asthmatics, in these same sera. […]"}, "serum YKL-40": {"test_system": "serum YKL-40", "assay": "Serum YKL-40 immunoassay", "excerpt": "To determine whether elevated levels of soluble periostin and CEA proteins were detectable in peripheral blood, we examined periostin and CEA in sera from 100 asthmatics and 48 healthy controls using immunoassays. In addition, we measured IgE and YKL-40, a serum marker previously described to be elevated in some asthmatics, in these same sera. […] However, in all cases, there was substantial overlap in serum levels of each biomarker between groups. As shown in Example 8, inhaled corticosteroid (ICS) treatment reduces the bronchial epithelial expression of periostin in asthmatics that have elevated periostin at baseline (see also [8]). Of the 100 asthmatics whose serum we examined, 51 were taking inhaled corticosteroids (ICS) and 49 were not. […] Nevertheless, asthmatics on ICS had higher median serum levels of IgE, periostin, and CEA than healthy controls (Table 13). As shown in FIG. 4 and Table 10, 21/23 asthmatics positive for the bronchial epithelial IL-13 signature (“IL-13 high”) had serum IgE levels greater than 100 IU/ml, although a proportion of “IL-13 low” asthmatics also had elevated IgE. […] As airway expression levels of periostin and CEACAM5 were highly correlated in “IL-13 high” asthmatics, we examined the correlation between serum periostin and CEA across all asthmatics (FIG. 13L)."}, "serum periostin": {"test_system": "serum periostin", "assay": "Serum periostin electrochemiluminescent assay (ECLA)", "method": "as §1"}, "serum IgE": {"test_system": "serum IgE", "assay": "Serum IgE (clinical laboratory or ELISA)", "method": "as §1"}}, "data": [{"compound": "CCC(=O)O[C@]1(C(=O)SCF)[C@H](C)C[C@H]2[C@@H]3C[C@H](F)C4=CC(=O)C=C[C@]4(C)[C@@]3(F)[C@@H](O)C[C@@]21C", "note": "[fluticasone, fluticasone propionate]", "values": [{"measurement": "CEA, level of serum biomarker, median (range)", "setting": "serum CEA", "value": "1.9 (<0.2-21*) ng/ml"}, {"measurement": "YKL-49, level of serum biomarker, median (range)", "setting": "serum YKL-40", "value": "72 (24-494) ng/ml"}, {"measurement": "Periostin, level of serum biomarker, median (range)", "setting": "serum periostin", "value": "48 (0-117) ng/ml"}, {"measurement": "IgE, level of serum biomarker, median (range)", "setting": "serum IgE", "value": "132 (1-2098) IU/ml"}]}]}
